Data published in publication PMC10108349, “Small-Molecule Fluorescent Ligands for the CXCR4 Chemokine Receptor” (Journal of Medicinal Chemistry, 2023).

Tests used:
[1] = tested on: HEK293G cells stably expressing SNAP-CXCR4; test: Confocal microscopy of fluorescent ligand binding; type: cell-based, human; conditions: for localisation of fluorescence in cells: 30 min at 37 °C; for membrane fluorescence after pretreatment with IT1t or AMD3100: 10 μM IT1t or 10 μM AMD3100, 30 min pre-incubation; for binding after treatment with AMD3100: 10 μM AMD3100, 30 min pre-incubation
Description: HEK293G-SNAP-CXCR4 cells were seeded onto poly-D-lysine-coated (10 μg/mL) 8-well Nunc Lab-tek chambered coverglass (no. 1.0 borosilicate glass bottom) in DMEM supplemented with 10% FCS at a density of 30,000 cells per well. The following day, media were replaced with fresh media supplemented with 10% FCS containing 0.5 μM SNAP-Surface Alexa Fluor 488 (New England Biolabs, Hitchin UK) for 30 min at 37 °C. […]
Cells were imaged on a Zeiss LSM880 with a Zeiss Axio Observer Z1 stand (Carl Zeiss, Germany) using a 40× C-apochromat NA1.2 water immersion objective. Excitation was via a 488 nm argon (to image SNAP-Surface Alexa Fluor 488) and 633 nm helium-neon (to image fluorescent ligands) laser lines with a 488/561/633 multibeam splitter and emission collected using a 493–628 nm band pass or 638–737 nm band pass. The pinhole was set at 1 Airy unit for the longer wavelength and laser power and gain and offset settings kept constant within the experiment to allow comparison. Equatorial plane images were made and four images were captured per condition per experiment using ZEN 2012 software (Carl Zeiss, Germany). Imaging of each ligand was performed at least three times.

NLuc-CXCR4 = target: T1, NLuc-CXCR4 (Homo sapiens, UniProt P61073); type: binding
T1 construct: expressed in transfected cells; membranes prepared from them
T1 sequence (P61073 whole entry): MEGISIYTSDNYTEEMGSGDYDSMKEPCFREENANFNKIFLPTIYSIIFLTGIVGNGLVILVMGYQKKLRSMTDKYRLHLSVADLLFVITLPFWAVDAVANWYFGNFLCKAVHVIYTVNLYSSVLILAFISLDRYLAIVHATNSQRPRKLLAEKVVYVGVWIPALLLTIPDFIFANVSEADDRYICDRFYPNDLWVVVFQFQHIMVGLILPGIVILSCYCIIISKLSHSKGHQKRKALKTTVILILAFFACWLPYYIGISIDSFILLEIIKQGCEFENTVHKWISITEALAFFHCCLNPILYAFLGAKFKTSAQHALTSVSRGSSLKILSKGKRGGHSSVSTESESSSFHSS
Description: In white clear-bottom 96-well plates or white opaque bottom 96-well plates, membranes expressing NLuc-CXCR4 were diluted to 10 μg per well in 20 μL of HBSS containing 0.2% BSA. […] Plates were then incubated in the dark for 2 h at 37 °C in the absence of CO2. The NLuc substrate furimazine (Promega Corporation) was then added (5 μL per well, 10 μM final concentration) and the plates were read using the PHERAstar FS plate reader (BMG Labtech, UK) at room temperature. The filtered light from each well was simultaneously measured using a 460 nm (80 nm band-pass filter) for NLuc emission and >610 nm longpass filter for fluorescence emission of BODIPY 630/650-X coupled ligands. For BODIPY-FL-X coupled ligands, emissions were simultaneously measured at 475 nm (30 nm band-pass filter; NLuc emission) and 535 nm (30 nm bandpass filter; BODIPY FL-X emission). The resulting raw BRET ratio was calculated by dividing the >610 nm emission (for red ligands) or the 535 nm emission (for green ligands) by the emissions measured for NLuc. […]

Molecule	localisation of fluorescence in cells ([1]; 100 nM ligand)	membrane fluorescence after pretreatment with IT1t or AMD3100 ([1]; 100 nM ligand)	localisation of fluorescence in cells ([1]; 50 nM ligand)	binding after treatment with AMD3100 ([1]; 50 nM ligand)	further results
CC1(C)CN2C(CS/C(=N/[C@H]3CC[C@H](NC(=O)CCCCCNC(=O)COc4ccc(/C=C/C5=[N+]6C(=Cc7ccc(-c8cccs8)n7[B-]6(F)F)C=C5)cc4)CC3)NC3CCCCC3)=CSC2=N1 [Compound 10, (6,6-Dimethyl-5,6-dihydroimidazo[2,1-b]thiazol-3-yl)methyl (E)-N-Cyclohexyl-N′-((1R,4R)-4-(6-(2-(4-((E)-2-(5,5-difluoro-7-(thiophen-2-yl)-5H-4λ^4,5λ^4-dipyrrolo[1,2-c:2′,1′-f][1,3,2]diazaborinin-3-yl)vinyl)phenoxy)acetamido)hexanamido)cyclo-hexyl)carbamimidothioate]	localized membrane fluorescence and very little intracellular fluorescence	substantially reduced			
CN1\C(=C/C=C/C=C/C2=[N+](CCCCCC(=O)N[C@H]3CC[C@H](/N=C(/NC4CCCCC4)SCC4=CSC5=NC(C)(C)CN45)CC3)c3ccc(S(=O)(=O)[O-])cc3C2(C)C)C(C)(C)c2cc(S(=O)(=O)O)ccc21 [Compound 11, 1-(6-(((1R,4R)-4-(((Z)-(Cyclohexylamino) (((6,6-dimethyl-5,6-dihydroimidazo[2,1-b]thiazol-3-yl)methyl)thio)methylene)amino)cyclohexyl)amino)-6-oxohexyl)-3,3-dimethyl-2-((1E,3E)-5-((Z)-1,3,3-trimethyl-5-sulfoindolin-2-ylidene)penta-1,3-dien-1-yl)-3H-indol-1-ium-5-sulfonate]	highly localized to the cell membrane	completely prevented			
CN(Cc1ncc2ccccc2c1CCCNC(=O)CCCCCNC(=O)COc1ccc(/C=C/C2=[N+]3C(=Cc4ccc(-c5cccs5)n4[B-]3(F)F)C=C2)cc1)[C@H]1CCCc2cccnc21 [Compound 18a, (S,E)-6-(2-(4-(2-(5,5-Difluoro-7-(thiophen-2-yl)-5H-4λ^4,5λ^4-dipyrrolo[1,2-c:2′,1′-f][1,3,2]diazaborinin-3-yl)vinyl)phenoxy)acetamido)-N-(3-(3-((methyl(5,6,7,8-tetrahydroquinolin-8-yl)amino)methyl)isoquinolin-4-yl)propyl)hexanamide]			reasonable membrane fluorescence; however, intracellular fluorescence was also apparent	reduced binding to cell surface receptors	
O=C(CCCCCNC(=O)COc1ccc(/C=C/C2=[N+]3C(=Cc4ccc(-c5cccs5)n4[B-]3(F)F)C=C2)cc1)NCCCCN(Cc1nc2ccccc2[nH]1)[C@H]1CCCc2cccnc21 [Compound 24, (S,E)-N-(4-(((1H-Benzo[d]imidazole-2-yl)methyl) (5,6,7,8-tetrahydroquinolin-8-yl)amino)butyl)-6-(2-(4-(2-(5,5-difluoro-7-(thiophen-2-yl)-5H-4λ4,5λ4-dipyrrolo [1,2-c:2′,1′-f][1,3,2]diazaborinin-3-yl)vinyl)phenoxy)acetamido)hexanamide]			reasonable membrane fluorescence; however, intracellular fluorescence was also apparent	reduced binding to cell surface receptors	
CXCL12: chemokine, the only endogenous ligand of CXCR4, purchased from PeproTech					concentration-dependent decrease of the BRET signal (NLuc-CXCR4): not; displacement of fluorescently labeled CXCL12 (NLuc-CXCR4): fully displaced
